Assays:
[1] = target: T1, High affinity immunoglobulin epsilon receptor subunit alpha (Homo sapiens) (UniProt P12319); assay: Inhibition of Fc-epsilonR1-mediated [Ca2+]i elevation in anti-human Fc-epsilonR1 antibody-stimulated human KU-812F cells; assay type: cell-based
T1 sequence (whole entry): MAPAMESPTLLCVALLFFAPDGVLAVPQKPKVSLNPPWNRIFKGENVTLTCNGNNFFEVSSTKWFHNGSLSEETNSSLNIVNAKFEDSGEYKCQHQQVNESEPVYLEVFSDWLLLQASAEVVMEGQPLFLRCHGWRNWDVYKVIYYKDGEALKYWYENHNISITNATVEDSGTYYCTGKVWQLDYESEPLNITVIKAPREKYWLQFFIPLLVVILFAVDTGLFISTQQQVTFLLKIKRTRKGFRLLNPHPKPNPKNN

KU-812F [2] = assay: Inhibition of Fc-epsilonR1 alpha mRNA expression in anti-human Fc-epsilonR1 antibody-stimulated human KU-812F cells after 24 hrs by RT-PCR; assay type: functional, cell-based
[3] = target: T1, High affinity immunoglobulin epsilon receptor subunit alpha (Homo sapiens); assay: Inhibition of Fc-epsilonR1-mediated histamine release in anti-human Fc-epsilonR1 antibody-stimulated human KU-812F cells by spectrofluorimetry; assay type: cell-based
KU-812F [4] = assay: Inhibition of Fc-epsilonR1 protein expression in anti-human Fc-epsilonR1 antibody-stimulated human KU-812F cells after 24 hrs by Western blotting; assay type: functional, cell-based
[5] = Inhibition of Fc-epsilonR1 expression in anti-human Fc-epsilonR1 antibody-stimulated human KU-812F cells at 50 uM after 24 hrs by flow cytometry; assay type: functional
[6] = Inhibition of Fc-epsilonR1 expression in anti-human Fc-epsilonR1 antibody-stimulated human KU-812F cells at 25 uM after 24 hrs by flow cytometry; assay type: functional
[7] = Inhibition of Fc-epsilonR1 expression in anti-human Fc-epsilonR1 antibody-stimulated human KU-812F cells at 5 uM after 24 hrs by flow cytometry; assay type: functional
[8] = Inhibition of Fc-epsilonR1 expression in anti-human Fc-epsilonR1 antibody-stimulated human KU-812F cells at 10 uM after 24 hrs by flow cytometry; assay type: functional

Structure (SMILES) | Activity [1] | Activity (KU-812F [2]) | Activity [3] | Activity (KU-812F [4]) | inhibition at 50 µM [5] [%] | inhibition at 25 µM [6] [%] | inhibition at 5 µM [7] [%] | inhibition at 10 µM [8] [%]
Oc1cc(O)cc(Oc2c(O)cc(O)c3c2Oc2c(O)cc4oc5c(Oc6cc(O)cc(O)c6)c(O)cc(O)c5c4c2O3)c1 | Dose-dependent effect | Dose-dependent effect | Dose-dependent effect | Dose-dependent effect | – | – | – | –
Oc1cc(O)c2oc3cc(O)c4oc5cc(O)cc(O)c5oc4c3oc2c1 [DIOXINODEHYDROECKOL] | Dose-dependent effect | Dose-dependent effect | Dose-dependent effect | Dose-dependent effect | 16.9 | 19.5 | 25.2 | 23.1

Reference: ChEMBL document CHEMBL1152932, “Inhibitory effects of phloroglucinol derivatives isolated from Ecklonia stolonifera on Fc(epsilon)RI expression” (Bioorg Med Chem, 2009)
